{"source": "patent US20130090355A1", "about": "“CHEMICAL AGENTS FOR THE PREVENTION OF INHIBITION OR TUMOR METASTASIS” (ALBERT EINSTEIN COLLEGE OF MEDICINE OF YESHIVA UNIVERSITY, priority 2010, published 2013)", "key": {"[1]": {"biological_target": "S100A4/myosin-IIA interaction (Homo sapiens, UniProt P26447)", "sequence (P26447 whole entry)": "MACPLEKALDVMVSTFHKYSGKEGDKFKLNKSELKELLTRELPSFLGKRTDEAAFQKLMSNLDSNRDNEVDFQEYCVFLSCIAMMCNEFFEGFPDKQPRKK", "assay": "Fluorescence polarization assay monitoring the S100A4/myosin-IIA interaction with FITC-MIIA^1908-1923 peptide", "assay_type": "binding", "excerpt": "An agent that prevents or inhibits the interaction between S100A4 and myosin-IIA may be determined by any method known in the art. For example, a fluorescence polarization assay that monitors the S100A4/myosin-IIA interaction using a fluorescein-tagged myosin-IIA peptide that comprises the minimal S100A4 binding site may be used as described in U.S. application Ser. No. 11/989,901, herein included in full.\nA fluorescence polarization assay was developed that monitors the S100A4/myosin-IIA interaction using a fluorescein-tagged myosin-IIA peptide that comprises the minimal S100A4 binding site (FITC-MIIA^1908-1923) (21, 24). […] In collaboration with the Rapid Access to NCI Discovery Resources (R•A•N•D) program, the fluorescence polarization assay was used to screen the LOPAC (1280 compounds) and Maybridge (14,320 compounds) chemical libraries to identify compounds that disrupt the S100A4/myosin-IIA interaction.\nEC50 values were determined from sixteen concentration titrations."}, "MDA-MB-231 cells [2]": {"test_system": "MDA-MB-231 cells", "assay": "MTT cell proliferation / growth inhibition assay", "details": "for MTT Assay death: MDA-MB-231, 24 hrs", "description": "However, all compounds were tested in a cell proliferation assay to identify cytotoxic compounds and determine compound concentrations that can be used to examine effects on motility and invasion.\nEC50 values were determined from sixteen concentration titrations. Growth inhibition of MDA-MB-231 cells, which express high levels of S100A4, was examined in a 96-well plate MTT assay at eight drug concentrations after treatment for 24 hrs."}, "MDA-MB-231 cells [3]": {"test_system": "MDA-MB-231 cells", "assay": "Boyden chamber assay of serum-stimulated chemotaxis", "assay_type": "cell-based", "details": "Homo sapiens; MDA-MB-231 chemotaxis towards serum (5% FBS), 24 hr; read-out: EC50 inhibition of serum-stimulated migration", "procedure": "FIG. 4. Boyden chamber assay examining the effects of lead compounds on MDA-MB-231 chemotaxis. Cells were serum starved for 5 hrs and plated into the upper chamber of a transwell in serum-free medium. Complete medium (5% FBS) was added to the lower chamber and the cells were allowed to migrate for 24 hr. Cells that penetrated the filter were stained with DAPI and quantified by fluorescence microscopy using 10 fields per filter.\nAs proof-of-principle that S100A4 inhibitors affect the motile and invasive capabilities of carcinoma cells, cell migration assays examining the ability of NSC 5069 and XAX 00168 to inhibit chemotaxis of MDA-MB-231 cells towards serum in a Boyden chamber assay were initiated (FIG. 4). Both NSC 5069 and XAX 00168 inhibit serum-stimulated migration to varying extents with EC50 values of approximately 40 and 20 μM for NSC 5069 and XAX 00168, respectively."}, "wild-type S100A4": {"biological_target": "wild-type S100A4 (Homo sapiens, UniProt P26447)", "sequence (P26447 whole entry)": "as above", "assay": "Mass spectrum of wild-type S100A4 after treatment with compound (covalent modification)", "excerpt": "(§1) FIG. 3A-3D. Mass spectrum of wild-type S100A4 (A) and following treatment with NSC 95397 (B). Mass spectrum of C81S/C86S S100A4 (C) and following treatment with NSC 95397 (D)."}, "C81S/C86S S100A4": {"biological_target": "C81S/C86S S100A4 (Homo sapiens, UniProt P26447, C81S/C86S)", "sequence (P26447 whole entry C81S/C86S, one chain of several)": "as the sequence (P26447 whole entry) above, with C81S, C86S counted along it", "assay": "Mass spectrum of C81S/C86S S100A4 after treatment with compound (covalent modification)", "details": "Cys81 and Cys86 substituted with serine", "excerpt": "as §1"}, "C3R/C81S/C86S S100A4": {"biological_target": "C3R/C81S/C86S S100A4 (Homo sapiens, UniProt P26447, C3R/C81S/C86S)", "sequence (P26447 whole entry C3R/C81S/C86S, one chain of several)": "as the sequence (P26447 whole entry) above, with C3R, C81S, C86S counted along it", "assay": "Myosin-IIA binding to C3R/C81S/C86S S100A4"}, "[4]": {"details": "Table 1, sixteen concentration titrations, read-out: EC50"}, "[5]": {"details": "read-out: EC50 (inhibition of the S100A4/myosin-IIA interaction)"}}, "note": "Values joined by “and” are separate entries in the source; they are usually repeats but may differ in a detail not shown here. Equal values may be shown once. “Also recorded” adds a separate entry of the source. Read-outs that look alike come from different tables or passages of the source."}
{"smiles": "[H]/N=C1\\C(=O)c2ccccc2-c2ccccc21", "note": "[NSC139152, 10-iminophenanthren-9-one]", "values": [{"measurement": "EC50", "setting": "[1]; [4]", "value": 4.3, "unit": "µM"}]}
{"smiles": "O=C1C(=O)c2cccc([N+](=O)[O-])c2-c2ccccc21", "note": "[NSC10204, 4-nitrophenanthrene-9,10-dione]", "values": [{"measurement": "MTT Assay death", "setting": "MDA-MB-231 cells [2]; at 100 μM", "value": 80, "unit": "% death at 100 μM"}]}
{"smiles": "O=C(O)CC1OCC=C2CN3CCC45C6=CC(=O)C(=O)C([N+](=O)[O-])=C6NC4C1C2CC35", "note": "(stereo not drawn) [NSC5069, Cacotheline]", "values": [{"measurement": "EC50", "setting": "[1]; [4]", "value": 19, "unit": "µM"}, {"measurement": "EC50", "setting": "[1]; [5]", "value": 19, "unit": "µM"}, {"measurement": "EC50", "setting": "MDA-MB-231 cells [3]", "value": "~40", "unit": "µM"}, {"measurement": "MTT Assay toxicity", "setting": "MDA-MB-231 cells [2]; MDA-MB-231, eight drug concentrations, 24 hrs", "value": "did not exhibit toxicity; also recorded: no toxicity detected"}]}
{"smiles": "Cc1oc(-c2ccc(Cl)cc2)cc1C(=O)/C(C#N)=C/c1ccccc1", "note": "[Maybridge SP00172, 2-{[5-(4-chlorophenyl)-2-methyl-3-furyl]carbonyl}-3-phenylacrylonitrile]", "values": [{"measurement": "EC50", "setting": "[1]; [5]", "value": "38 to 46", "unit": "µM"}, {"measurement": "MTT Assay death", "setting": "MDA-MB-231 cells [2]; at 50 μM", "value": 100, "unit": "% death at 50 μM"}]}
{"smiles": "CC(=O)c1ccc2c(c1)-c1ccccc1C(=O)C2=O", "note": "[NSC400689, 3-acetylphenanthrene-9,10-dione]", "values": [{"measurement": "MTT Assay death", "setting": "MDA-MB-231 cells [2]; @ 2.5 μM", "value": 100, "unit": "% death @ 2.5 μM"}]}
{"smiles": "O=C1C(=O)c2ccccc2-c2ccccc21", "note": "[NSC10446/ NSC7389, Phenanthrene-9,10-dione]", "values": [{"measurement": "MTT Assay death", "setting": "MDA-MB-231 cells [2]; @ 25 μM", "value": 100, "unit": "% death @ 25 μM"}]}
{"smiles": "O=C1C(SCCO)=C(SCCO)C(=O)c2ccccc21", "note": "[NSC95397, 2,3-bis(2-hydroxyethylsulfanyl)naphthalene-1,4-dione]", "values": [{"measurement": "EC50", "setting": "[1]; [5]", "value": 7.6, "unit": "µM"}, {"measurement": "covalent modification of S100A4 (mass)", "setting": "wild-type S100A4", "value": "modification of each monomer at two residues"}, {"measurement": "covalent modification of S100A4 (mass)", "setting": "C81S/C86S S100A4", "value": "prevented modification"}, {"measurement": "MTT Assay death", "setting": "MDA-MB-231 cells [2]; @ 2.5 μM", "value": 100, "unit": "% death @ 2.5 μM"}]}
{"smiles": "O=C1C(=O)c2cc(Cl)ccc2-c2ccccc21", "note": "[NSC102363, 2-chlorophenanthrene-9,10-dione]", "values": [{"measurement": "MTT Assay death", "setting": "MDA-MB-231 cells [2]; @ 10 μM", "value": 100, "unit": "% death @ 10 μM"}]}
{"smiles": "O=C1C(=O)c2cc([N+](=O)[O-])ccc2-c2ccccc21", "note": "[NSC5425/ NSC23180, 2-nitrophenanthrene-9,10-dione]", "values": [{"measurement": "MTT Assay death", "setting": "MDA-MB-231 cells [2]; @ 10 μM", "value": 100, "unit": "% death @ 10 μM"}]}
{"smiles": "CSc1sc(C(=O)NN)cc1-c1nc(C)cs1", "note": "[Maybridge KM03663, 5-methylsulfanyl-4-(4-methyl-1,3-thiazol-2-yl)thiophene-2-carbohydrazide]", "values": [{"measurement": "EC50", "setting": "[1]; [5]", "value": "38 to 46", "unit": "µM"}, {"measurement": "MTT Assay death", "setting": "MDA-MB-231 cells [2]; at 150 μM", "value": 100, "unit": "% death at 150 μM"}]}
{"smiles": "O=C1NC(=S)S/C1=C\\c1cc([N+](=O)[O-])ccc1Sc1ccc(C(F)(F)F)cn1", "note": "[Maybridge XAX00168, 5-(5-nitro-2{[5-(trifluoromethyl)-2-pyridyl]thio}benzylidene)-2-thioxo-1,3-thiozolan-4-one]", "values": [{"measurement": "EC50", "setting": "[1]; [4]", "value": 46, "unit": "µM"}, {"measurement": "EC50", "setting": "[1]; [5]", "value": "38 to 46 µM and 46 µM"}, {"measurement": "EC50", "setting": "MDA-MB-231 cells [3]", "value": "~20", "unit": "µM"}, {"measurement": "GI50", "setting": "MDA-MB-231 cells [2]; Homo sapiens, MDA-MB-231", "value": 190, "unit": "µM"}, {"measurement": "IC50", "setting": "MDA-MB-231 cells [2]; Homo sapiens, MDA-MB-231, 24 h, read-out: MTT Assay IC50", "value": 190, "unit": "µM"}]}
{"smiles": "O=C1c2ccccc2-c2ccccc2C1(Cl)Cl", "note": "[NSC6339/ NSC135154, 10,10-dichlorophenanthren-9-one]", "values": [{"measurement": "MTT Assay death", "setting": "MDA-MB-231 cells [2]; @ 2.5 μM", "value": 100, "unit": "% death @ 2.5 μM"}]}
{"smiles": "CSCC[C@H](NC(=O)[C@H](C)NC(=O)[C@H](CC(=O)O)NC(=S)Nc1ccc2c(c1)C(=O)OC21c2ccc(O)cc2Oc2cc(O)ccc21)C(=O)N[C@@H](CC(N)=O)C(=O)N[C@@H](CCCNC(=N)N)C(=O)N[C@@H](CCC(=O)O)C(=O)N[C@H](C(=O)N[C@@H](CO)C(=O)N[C@@H](CO)C(=O)N[C@@H](CC(C)C)C(=O)N[C@@H](CCCCN)C(=O)N[C@@H](CC(N)=O)C(=O)N[C@@H](CCCCN)C(=O)N[C@@H](CC(C)C)C(=O)N[C@@H](CCCNC(=N)N)C(=O)N[C@@H](CCCNC(=N)N)C(=O)O)C(C)C", "note": "[FITC-MIIA^1908-1923]", "values": [{"measurement": "myosin-IIA binding", "setting": "C3R/C81S/C86S S100A4", "value": "undetectable"}]}
{"smiles": "O=Nc1c(O)c2ccccc2c2ccc([N+](=O)[O-])cc12", "note": "[NSC402968]", "values": [{"measurement": "EC50", "setting": "[1]; [4]", "value": 17, "unit": "µM"}]}
{"smiles": "O=C1C2=C(SCCS2)C(=O)c2ccccc21", "note": "[NSC55480, 2,3-dihydrobenzo[g][1,4]benzodithiine-5,10-dione]", "values": [{"measurement": "MTT Assay death", "setting": "MDA-MB-231 cells [2]; @ 2.5 μM", "value": 100, "unit": "% death @ 2.5 μM"}]}
